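GI50: concentration for 50% inhibition of growth. TGI is the concentration that stops growth completely.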
Key:
Assay in all cases: inhibition of tumour cell growth, NCI panel, 384-well format
SR leukemia = test system: SR leukemia
SN12C renal = test system: SN12C renal
UACC-62 melanoma = test system: UACC-62 melanoma
LOX IMVI melanoma = test system: LOX IMVI melanoma
NCI-H522 lung = test system: NCI-H522 lung
A549 NSCLC = test system: A549 NSCLC
NCI-H322M lung = test system: NCI-H322M lung
786-0 renal = test system: 786-0 renal
MALME-3M melanoma = test system: MALME-3M melanoma
T-47D breast = test system: T-47D breast
KM12 colon = test system: KM12 colon
HCT-15 colon = test system: HCT-15 colon
NCI-H23 lung = test system: NCI-H23 lung
A498 renal = test system: A498 renal
SF-539 CNS = test system: SF-539 CNS
MOLT-4 leukemia = test system: MOLT-4 leukemia
TK-10 renal = test system: TK-10 renal
SF-295 CNS = test system: SF-295 CNS
OVCAR-3 ovarian = test system: OVCAR-3 ovarian
SK-MEL-28 melanoma = test system: SK-MEL-28 melanoma
HOP-92 NSCLC = test system: HOP-92 NSCLC
UO-31 renal = test system: UO-31 renal
SK-MEL-5 melanoma = test system: SK-MEL-5 melanoma
SW-620 colon = test system: SW-620 colon
UACC-257 melanoma = test system: UACC-257 melanoma
RXF 393 renal = test system: RXF 393 renal
PC-3 prostate = test system: PC-3 prostate
CAKI-1 renal = test system: CAKI-1 renal
HOP-62 NSCLC = test system: HOP-62 NSCLC
OVCAR-8 ovarian = test system: OVCAR-8 ovarian
NCI/ADR-RES ovarian = test system: NCI/ADR-RES ovarian
OVCAR-4 ovarian = test system: OVCAR-4 ovarian
M14 melanoma = test system: M14 melanoma
OVCAR-5 ovarian = test system: OVCAR-5 ovarian
HCT-116 colon = test system: HCT-116 colon
SK-MEL-2 melanoma = test system: SK-MEL-2 melanoma
SF-268 CNS = test system: SF-268 CNS
MDA-MB-435 melanoma = test system: MDA-MB-435 melanoma
MCF7 breast = test system: MCF7 breast
NCI-H460 NSCLC = test system: NCI-H460 NSCLC
SK-OV-3 ovarian = test system: SK-OV-3 ovarian
COLO 205 colon = test system: COLO 205 colon
ACHN renal = test system: ACHN renal
IGROV1 ovarian = test system: IGROV1 ovarian
DU-145 prostate = test system: DU-145 prostate
MDA-MB-468 breast = test system: MDA-MB-468 breast
RPMI-8226 leukemia = test system: RPMI-8226 leukemia
SNB-19 CNS = test system: SNB-19 CNS
HT29 colon = test system: HT29 colon
NCI-H226 lung = test system: NCI-H226 lung
K-562 leukemia = test system: K-562 leukemia
CCRF-CEM leukemia = test system: CCRF-CEM leukemia
U251 glioblastoma = test system: U251 glioblastoma
HCC-2998 colon = test system: HCC-2998 colon
HL-60(TB) leukemia = test system: HL-60(TB) leukemia

In the case of `CC[C@H](NC(=O)[C@H](C)NC)C(=O)N1C[C@@H](O)C[C@H]1Cc1c(-c2[nH]c3cc(F)ccc3c2C[C@@H]2C[C@H](O)CN2C(=O)[C@H](CC)NC(=O)[C@H](C)NC)[nH]c2cc(F)ccc12`, the GI50 (SR leukemia) was 3.4 µM, the TGI (SR leukemia) was 19.5 µM and the GI50 (SN12C renal) was greater than 100 µM. The TGI (SN12C renal) was greater than 100 µM, the GI50 (UACC-62 melanoma) was greater than 100 µM and the TGI (UACC-62 melanoma) was greater than 100 µM. For the same molecule, the GI50 (LOX IMVI melanoma) was 20.1 µM, the TGI (LOX IMVI melanoma) was 35.9 µM and the GI50 (NCI-H522 lung) was 0.0544 µM. It also gave a TGI (NCI-H522 lung) of 12.9 µM, a GI50 (A549 NSCLC) greater than 100 µM and a TGI (A549 NSCLC) greater than 100 µM. The GI50 (NCI-H322M lung) was greater than 100 µM, the TGI (NCI-H322M lung) was greater than 100 µM and the GI50 ([…]-0 renal) was greater than 100 µM. It also gave a TGI (786-0 renal) greater than 100 µM, a GI50 (MALME-3M melanoma) of 0.0143 µM and a TGI (MALME-3M melanoma) of 0.132 µM. The GI50 (T-47D breast) was greater than 100 µM, the TGI (T-47D breast) was greater than 100 µM and the GI50 (KM12 colon) was 23.8 µM. For the same molecule, the TGI (KM12 colon) was 74.5 µM, the GI50 (HCT-15 colon) was greater than 100 µM and the TGI (HCT-15 colon) was greater than 100 µM. For the same molecule, the GI50 (NCI-H23 lung) was 0.0611 µM, the TGI (NCI-H23 lung) was 13.1 µM and the GI50 (A498 renal) was greater than 100 µM. The TGI (A498 renal) was greater than 100 µM, the GI50 (SF-539 CNS) was 14.6 µM and the TGI (SF-539 CNS) was 32.5 µM. For the same molecule, the GI50 (MOLT-4 leukemia) was 16.4 µM, the TGI (MOLT-4 leukemia) was 30.2 µM and the GI50 (TK-10 renal) was greater than 100 µM. The TGI (TK-10 renal) was greater than 100 µM, the GI50 (SF-295 CNS) was 82 µM and the TGI (SF-295 CNS) was greater than 100 µM. For the same molecule, the GI50 (OVCAR-3 ovarian) was 17.9 µM, the TGI (OVCAR-3 ovarian) was greater than 100 µM and the GI50 (SK-MEL-28 melanoma) was 86.3 µM. For the same molecule, the TGI (SK-MEL-28 melanoma) was greater than 100 µM, the GI50 (HOP-92 NSCLC) was 0.785 µM and the TGI (HOP-92 NSCLC) was 13.5 µM. For the same molecule, the GI50 (UO-31 renal) was greater than 100 µM, the TGI (UO-31 renal) was greater than 100 µM and the GI50 (SK-MEL-5 melanoma) was 0.112 µM. The TGI (SK-MEL-5 melanoma) was 0.438 µM, the GI50 (SW-620 colon) was 57 µM and the TGI (SW-620 colon) was greater than 100 µM. The GI50 (UACC-257 melanoma) was 20 µM, the TGI (UACC-257 melanoma) was 69.3 µM and the GI50 (RXF 393 renal) was less than 0.01 µM. It also gave a TGI (RXF 393 renal) of 0.0829 µM, a GI50 (PC-3 prostate) of 63 µM and a TGI (PC-3 prostate) greater than 100 µM. For the same molecule, the GI50 (CAKI-1 renal) was greater than 100 µM, the TGI (CAKI-1 renal) was greater than 100 µM and the GI50 (HOP-62 NSCLC) was 0.555 µM. For the same molecule, the TGI (HOP-62 NSCLC) was 8.66 µM, the GI50 (OVCAR-8 ovarian) was 17 µM and the TGI (OVCAR-8 ovarian) was greater than 100 µM. The GI50 (NCI/ADR-RES ovarian) was greater than 100 µM, the TGI (NCI/ADR-RES ovarian) was greater than 100 µM and the GI50 (OVCAR-4 ovarian) was less than 0.01 µM. It also gave a TGI (OVCAR-4 ovarian) of less than 0.01 µM, a GI50 (M14 melanoma) greater than 100 µM and a TGI (M14 melanoma) greater than 100 µM. The GI50 (OVCAR-5 ovarian) was greater than 100 µM, the TGI (OVCAR-5 ovarian) was greater than 100 µM and the GI50 (HCT-116 colon) was 35 µM. The TGI (HCT-116 colon) was greater than 100 µM, the GI50 (SK-MEL-2 melanoma) was less than 0.01 µM and the TGI (SK-MEL-2 melanoma) was less than 0.01 µM. It also gave a GI50 (SF-268 CNS) of 28.1 µM, a TGI (SF-268 CNS) of 90.6 µM and a GI50 (MDA-MB-435 melanoma) of 0.0982 µM. The TGI (MDA-MB-435 melanoma) was greater than 100 µM, the GI50 (MCF7 breast) was 15.1 µM and the TGI (MCF7 breast) was 31.4 µM. The GI50 (NCI-H460 NSCLC) was 18 µM, the TGI (NCI-H460 NSCLC) was 38.1 µM and the GI50 (SK-OV-3 ovarian) was less than 0.01 µM. For the same molecule, the TGI (SK-OV-3 ovarian) was less than 0.01 µM, the GI50 (COLO 205 colon) was 37 µM and the TGI (COLO 205 colon) was greater than 100 µM. The GI50 (ACHN renal) was greater than 100 µM, the TGI (ACHN renal) was greater than 100 µM and the GI50 (IGROV1 ovarian) was greater than 100 µM. It also gave a TGI (IGROV1 ovarian) greater than 100 µM, a GI50 (DU-145 prostate) of 24.2 µM and a TGI (DU-145 prostate) greater than 100 µM. The GI50 (MDA-MB-468 breast) was less than 0.01 µM, the TGI (MDA-MB-468 breast) was 0.637 µM and the GI50 (RPMI-8226 leukemia) was 0.102 µM. For the same molecule, the TGI (RPMI-8226 leukemia) was 0.896 µM, the GI50 (SNB-19 CNS) was greater than 100 µM and the TGI (SNB-19 CNS) was greater than 100 µM. It also gave a GI50 (HT29 colon) of 16.4 µM, a TGI (HT29 colon) of 39.8 µM and a GI50 (NCI-H226 lung) greater than 100 µM. For the same molecule, the TGI (NCI-H226 lung) was greater than 100 µM, the GI50 (K-562 leukemia) was 21.9 µM and the TGI (K-562 leukemia) was 50.7 µM. For the same molecule, the GI50 (CCRF-CEM leukemia) was 0.028 µM, the TGI (CCRF-CEM leukemia) was 16.8 µM and the GI50 (U251 glioblastoma) was 18 µM. It also gave a TGI (U251 glioblastoma) of 35.7 µM, a GI50 (HCC-2998 colon) of 16.6 µM and a TGI (HCC-2998 colon) of 49.8 µM. The GI50 (HL-60(TB) leukemia) was less than 0.01 µM and the TGI (HL-60(TB) leukemia) was less than 0.01 µM.
